From publication PMC2699550, “Bacterial Ortholog of Mammalian Translocator Protein (TSPO) with Virulence Regulating Activity” (PLoS ONE, 2009)

Target: T1, bacterial TSPO (P. fluorescens MF37 TSPO)
T1 construct: native protein in bacterial membranes; 438 bp fragment encoding 146 residues; theoretical 17 kDa, 37 kDa band on SDS-PAGE, apparent dimer
Test: [3H]-PK […] saturation binding, Scatchard, bacterial membranes
Type: biochemical, Pseudomonas fluorescens
Conditions: labelled compound; native membranes, 50 mM Tris-HCl pH 7.4; 0.6 to 59 nM tracer; non-specific with 30 µM PK 11195

Question: Which Kd does the source give for CCC(C)N(C)C(=O)c1cc2ccccc2c(-c2ccccc2Cl)n1 (stereo not shown) [PK 11195] here?
Answer: 920 pM
